Test results taken from patent US9150608B2, “Neuro-protective compounds and their use” (Biotechnology Research Corp. Ltd., priority 2010, dated 2015).

How the values were obtained:
[1] = system: CREB promoter; test: CREB promoter assay (luciferase) in cortical neurons; format: cell-based, rat; conditions: cortical neurons 7DIV, 6 hours incubation
Experimental: FIG. 26. GAG-C77 increases CREB-promoter activity in primary cortical neurons. Primary cortical neuronal cultures (7DIV) transfected with a luciferase-CREB promoter construct were treated with GAG-C69 or GAG-C77 (concentration depicted in [μM]). Cell lysates were collected after 6 hours incubation and luciferase activity was measured. BDNF [ng/mL] and rolipram [μM] were used as positive controls. Assays were conducted in triplicate. *=P<0.05; **=P<0.005.
Freshly isolated embryonic cortical neurons were transfected with a luciferase reporter gene (Cre-Luc) linked to CREB activation following the ACM lipofectamine method using Lipofectamine 2000, a cationic liposome based reagent (Invitrogen). […] Transfection was performed using 1 μL Lipofectamine 2000 and 0.4 μg DNA per well. Neurons were then treated with test samples for time periods of 6 hours. After treatment, the cells were washed with ice-cold DPBS and 100 μL of 1× luciferase lysis buffer (Promega) was added. The plates were placed in −20° C. to freeze the cells, after which they were thawed to facilitate lysis. The lysates were transferred onto white bottom plates and assayed for renilla luciferase using the luciferase assay kit (Promega). Increased CREB activation in the neurons leads to an enhanced luciferase production and this was quantified using a Promega GloMax™ 96 microplate luminometer. […]

[2] = system: phosphorylated ERK, CREB, Akt, P38, MEK in cortical neurons; test: Western blot detection of signaling proteins in cortical neurons; format: cell-based, rat; conditions: cortical neurons 7DIV
[3] = system: rat cortical neurons cultured in the absence of B27; test: Cortical neuron survival assay with B27 withdrawal (MTT); format: cell-based; conditions: for cell survival of cortical neurons in the absence of B27 (MTT): 30 μM, pre-treated 24 hours (FIG. 15); for concentration showing neuroprotective effect in the absence of B27 (MTT): primary cortical neurons 7DIV, dose-dependent study 1-30 μM
Experimental: FIG. 2. Adelostemma gracillimum refined fraction promotes rat cortical neuron survival against B27 withdrawal. Cortical neurons isolated from embryonic day 18 rats were cultured in Neurobasal medium supplemented with 2 % B27. […] A MTT assay was performed 24 hours later. Cell survival is presented as a percentage compared to a DMSO control in the presence of B27 (“CTL with B27”). Assays were conducted in triplicate and repeated at least twice. *=P<0.05.
Primary cortical neurons were cultured in Neurobasal medium and supplemented with B27, a proprietary formula of Life Technologies. The combination of Neurobasal medium and B27 provides a stable growth environment for primary neurons to maturity in vitro. Neurons undergo apoptosis or cell death in the absence of B27. To study the neuroprotective effect of Adelostemma gracillimum refined fraction, neurons of 7DIV were treated with AG-0 and cell survival was measured as mitochondrial activity by the MTT assay.
The cells were then washed with Hanks' solution twice and replaced with test samples that were serial diluted in Neurobasal medium. A tetrazole, 3-(4,5-Dimethylthiazol-2-yl)-2,5-diphenyltetrazolium bromide (MTT, 5 mg/ml) was added to the medium at a ratio of 1:10 after a 2-day incubation. MTT is reduced by living cells into purple formazan and further solubilized in 20% SDS solution; therefore, the colored solution was measured by spectrophotometer and cell viability was quantified.

[4] = system: cyclic AMP response (CRE) element; test: CRE-dependent transcription assay (luciferase); format: cell-based, rat; conditions: hippocampal neurons 12DIV, 50 μM, 6 hours
Experimental: FIG. 41. GAG compounds enhance CRE-dependent transcription activity. GAG-C14 (a), GAG-C53 (b), GAG-C63 (c), GAG-C69 (d), GAG-C84 (e), GAG-C111 (f), GAG-C122 (g), GAG-C123 (h), and GAG-C129 (i) induce CRE-dependent transcriptional activity in cultured hippocampal neurons. On the day of cell seeding, hippocampal neurons were transfected with a firefly luciferase reporter plasmid containing cyclic AMP response (CRE)-element. The cells at 12 DIV were then treated with 50 μM of AG compounds for 6 hours. Data are mean±SEM (n=3-4), *=P<0.05, **=P<0.01, and ***=P<0.005 versus vehicle-treated cells (0 μM), student's t test.
Cultured hippocampal neurons were transfected with a firefly luciferase reporter plasmid containing a cyclic AMP response (CRE) element. At 12DIV, the cells were treated with 50 μM of compound for 6 hours, then CRE-dependent transcription activity was assayed by measuring luciferase levels.
Freshly isolated embryonic cortical neurons were transfected with a luciferase reporter gene (Cre-Luc) linked to CREB activation following the ACM lipofectamine method using Lipofectamine 2000, a cationic liposome based reagent (Invitrogen). […] Transfection was performed using 1 μL Lipofectamine 2000 and 0.4 μg DNA per well. Neurons were then treated with test samples for time periods of 6 hours. After treatment, the cells were washed with ice-cold DPBS and 100 μL of 1× luciferase lysis buffer (Promega) was added. The plates were placed in −20° C. to freeze the cells, after which they were thawed to facilitate lysis. The lysates were transferred onto white bottom plates and assayed for renilla luciferase using the luciferase assay kit (Promega). Increased CREB activation in the neurons leads to an enhanced luciferase production and this was quantified using a Promega GloMax™ 96 microplate luminometer. […] BDNF and rolipram were used as positive controls.

[5] = system: hippocampal neurons; test: Quantification of spine (dendritic spine morphology); format: cell-based, rat; conditions: hippocampal neurons 14DIV, 10 μM, 24 hr, vs DMSO
Experimental: FIG. 38. GAG-C14 modulates spine morphogenesis. Hippocampal neurons were transfected with enhanced green fluorescent protein (EGFP) construct at 7DIV by calcium phosphate precipitation. The GFP-expressing neurons at 14DIV were then treated with 10 μM GAG-C14 or DMSO vehicle control for 24 hr. The dendritic spine morphology of hippocampal neurons was examined by confocal microscopy.
Cultured hippocampal neurons were seeded on 18 mm coverslips coated with poly-D-lysine in 12-well-plates (Falcon). The neurons were then grown in Neurobasal medium (Invitrogen) supplemented with 2% B27 (Invitrogen) and 0.5 mM glutamine. To visualize the morphology of dendritic spines, the neurons were transfected with GFP DNA construct between 7-9 DIV by using calcium phosphate precipitation. To examine the development of dendritic spines, the neurons were treated with the test compound on 14 DIV. The neurons were then fixed with 4% paraformaldehyde and morphology was examined using confocal microscopy. To quantify spine density in cultured hippocampal neurons, a stack of images (z step, 0.5 μm) was collected using a 60× objective. Images were merged and analyzed using MetaMorph software (Universal Imaging Corp). Dendritic spines, defined as protrusions at least 0.5 μm from the dendritic surface, were scored and expressed as per μm length of dendrite. Three dendrites from each neuron was randomly selected and quantified in a double-blinded manner. For each experimental condition, twenty to thirty neurons were analyzed from 3 independent experiments. Data was presented as mean±SEM.

[6] = system: cortical neurons in the absence of B27; test: Immunocytochemical analysis of neurons after B27 withdrawal; format: cell-based, rat; conditions: 30 μM, pre-treated 24 hours
Experimental: FIG. 10. Immunofluorescence staining of cortical neurons pretreated with Adelostemma gracillimum refined fraction or fraction AG-3 in the absence of B27. […] Cortical neuronal cultures of 7DIV were pre-treated with AG-0 (30 μg/mL), AG-3 (30 μg/mL), or BDNF (50 ng/mL) for 24 hours, then the medium was changed to one lacking B27. Cultures were fixed with 4% paraformaldehyde, immunostained with beta-tubulin type III antibody, and visualized with FITC-conjugated anti-mouse antibody. Cell bodies were highlighted by DAPI staining. DMSO was used as a solvent control. Images are shown at 40× magnification.
FIG. 21. Immunofluorescence staining of GAG-C27-treated cortical neurons in the absence of B27. Cortical neuronal cultures of 7DIV were pre-treated with AG-0 (30 μg/mL), GAG-C27 (30 μM), or BDNF (50 ng/mL) for 24 hours, after which the medium was changed to one lacking B27. Cultures were fixed with 4% paraformaldehyde, immunostained with beta-tubulin type III antibody, and visualized with FITC-conjugated anti-mouse antibody. Cell bodies were highlighted by DAPI staining. DMSO was used as a solvent control. […]
Cortical neurons were plated on 35-mm dishes (NUNC) at a density of 1×10^6 cells per plate using Neurobasal medium (Invitrogen) supplemented with 2% B27 (Invitrogen). […] Cell morphology was then analyzed using a fluorescence microscope with a 40× objective (DMRA; Leica). […]

luciferase activity driven by the CREB promoter [1]	CRE-dependent transcription activity (luciferase) [4]	Compound	ERK phosphorylation time course ([2]; 30 μM)	CREB phosphorylation ([2]; 30 μM, 15 min of incubation)	cell survival of cortical neurons in the absence of B27 (MTT) [3]	concentration showing neuroprotective effect in the absence of B27 (MTT) [3] [µM]	AKT protein phosphorylation ([2]; 10 μM)	ERK phosphorylation time course ([2]; 10 μM)	frequency / percentage of filopodia [5]	percentage of large spines (head>1 μm) [5]	spine density [5]	phosphorylated P38 ([2]; 10 μM, after 30 min of incubation)	protection from cell death after B27 withdrawal (immunofluorescence staining) [6]
significantly induce luciferase activity	–	COc1cc(C2Oc3c(OC)cc(C=O)cc3C2C)ccc1O (centres unmarked) [GAG-C77, 4-hydroxyl-3,3′-dimethyoxyl-4″,7-epoxy-8,5′-oxyneoligna-7′-al]	significantly induced ERK phosphorylation in cortical neurons from 15 min and persistently to 180 min	induced CREB phosphorylation	promoted cell survival	10 to 30	–	–	–	–	–	–	–
–	enhances CRE-dependent transcription	CCCCCCCCCCCCCCCC(=O)OCC(O)CO (centres unmarked) [GAG-C14, 2,3-dihydroxypropyl palmitate]	–	–	–	–	no observable effect	induced ERK phosphorylation in cortical neurons after 15 min and the effect remained for 90 min	reduction in the frequency of filopodia	significantly increased	increase in spine density	–	–
–	–	3-O-β-D-Cymaropyranose-(1→4)-β-D-Digitoxopyranose-12-cis-cinnamyl-20-acetyl-8,14-seco-sacrostin [GAG-C27]	–	–	promoted cell survival	30	no effect	induced ERK phosphorylation in cortical neurons after 15 min, which was sustained for 60 min	–	–	–	reduction	protected cortical neurons from cell death
